SMILES strings stand for the structures.

Assay type in all cases: in vitro ADME
The nature of series [1]: Metabolic stability in pooled human liver microsomes. The following applies: human liver microsomes 0.5 mg/mL, 1 uM, 37° C., NADPH. The procedure: (§1) Metabolic Stability: In vitro metabolic stability was determined in pooled mouse or human liver microsomes (BD Gentest) at a protein concentration of 0.5 mg/mL in reaction buffer (100 mM KH2PO4, pH 7.4 and 12 mM MgCl2). Each drug candidate was added to a final concentration of 1 uM. This mixture was pre-warmed to 37° C. for 10 minutes prior to starting the reaction with the addition of β-Nicotinamide adenine dinucleotide 2′-phosphate reduced (NADPH) to a final concentration of 1 mM. A parallel incubation lacking NADPH served as the control. After incubation for 30 min at 37° C., the reactions were quenched by the addition of acetonitrile containing 0.1% formic acid and internal standard, vortex mixed for 2 minutes and centrifuged at 4000 rpm for 10 minutes to pellet the precipitated protein. The resulting supernatant containing the drug candidate and its potential metabolites was diluted 5-fold with water containing 0.1% formic acid and submitted to LC-MS/MS analysis. […]
(§2) LC-MS/MS Analysis: An aliquot from each incubation was analyzed by LC-MS/MS with SRM detection in the positive ionization mode using an ABSciex API 5500 QTrap Mass Spectrometer interfaced via the ABSciex Turbo V IonSpray source (ESI) to an Eksigent ExpressHT LC system. […] A fast gradient, from 15 to 85% organic in 2.5 minutes, with run time of 5.0 minutes, and flow rate of 50 ul/min was utilized. Peak areas were integrated using MultiQuant v2.0 software from ABSciex.
For orientation: Microsomes from liver hold many membrane-bound enzymes, among them those of drug oxidation.

Series [2] can be described thus: Plasma stability in fresh human plasma. The following applies: 1 uM, 37° C. How it is done: (§3) Plasma Stability: Assessment of plasma stability was carried out by individual incubations of drug candidates in fresh mouse or human control plasma at a concentration of 1 uM for 1 hour at 37° C. After which, the samples were de-proteinized by addition of 2 volumes of acetonitrile containing 0.1% formic acid and internal standard, vortex mixed for 2 minutes and centrifuged at 4000 rpm for 10 minutes to pellet precipitated protein. The resulting supernatant containing the drug candidates was diluted 5-fold with water containing 0.1% formic acid and submitted to LC-MS/MS analysis. All determinations were done in triplicate. […]
as §2

Series [3] in a line: Stability in Simulated Gastric Fluid (SGF). The following applies: 37° C., 0.01 mg/mL. The procedure:
(§4) Stability in Simulated Gastric Fluid (SGF) and Simulated Intestinal Fluid (SIF). Procedure from Baudy et. al. (J. Med. Chem. 2009, 52, 771-778) used. The physiological stability of prodrugs was determined by examining the stability of the compound in SGF, and SIF at 37° C. The compounds were prepared in a 9:1 mixture of the appropriate test component (SGF, SIF) and acetonitrile to a final concentration of 0.01 mg/mL. The samples were thoroughly mixed and maintained at 37° C. Each sample was injected consecutively onto an Agilent 1100 system (Luna C18, 3 μm, 50 mm×3 mm; 1 mL/min; mobile phase of 0.1% trifluoroacetic acid in water/0.1% trifluoroacetic acid in acetonitrile) after a 3 h period. The percent remaining of prodrug was calculated by comparing the area of prodrug compound versus riluzole generated. The identities of the parent compounds and conversion products were confirmed by LC/MS.

Series [4] can be described thus: Plasma stability in fresh mouse plasma. Particulars: 1 uM, 37° C. The procedure:
as §3, §2

Series [5] in a line: Stability in Simulated Intestinal Fluid (SIF). Particulars: 37° C., 0.01 mg/mL. The procedure: as §4
Series [6] in a line: Metabolic stability in pooled mouse liver microsomes. The following applies: mouse liver microsomes 0.5 mg/mL, 1 uM, 37° C., NADPH. The procedure:
as §1, §2

Consider `O=C(CCC(=O)Nc1nc2ccc(OC(F)(F)F)cc2s1)NCc1cccnc1` [Cpd 23, N-Pyridin-3-ylmethyl-N′-(6-trifluoromethoxy-benzothiazol-2-yl)-succinamide], for which the “Metabolic Stability human (30 minutes): percent of prodrug metabolized to riluzole” value in series [1] was 4%. The “Plasma Stability Human (1 hour): percent of prodrug metabolized to riluzole” value (“Plasma Stability Human (1 hour): percent” for short) in series [2] was 0%. Moreover, in series [3], the “SGF (3 hours): percent of prodrug metabolized to riluzole” value (shortened to “SGF (3 hours): percent”) was 0%. Further, in series [4], the “Plasma Stability mouse (1 hour): percent of prodrug metabolized to riluzole” value (from here on “Plasma Stability mouse (1 hour): percent”) is 26%. Further, the “SIF (3 hours): percent of prodrug metabolized to riluzole” value (shortened to “SIF (3 hours): percent”) in series [5] is 10%. Moreover, in series [6], the “Metabolic Stability mouse (30 minutes): percent of prodrug metabolized to riluzole” value is recorded as 0%.

As for `N[C@@H](COCc1ccccc1)C(=O)Nc1nc2ccc(OC(F)(F)F)cc2s1` [Cpd 10, (S)-2-Amino-3-benzyloxy-N-(6-trifluoromethoxy-benzothiazol-2-yl)-propionamide], the “Metabolic Stability human (30 minutes): percent of prodrug metabolized to riluzole” value in series [1] turned out to be 15%. For the same molecule, in series [2], the “Plasma Stability Human (1 hour): percent” value was determined as 9%. The “SGF (3 hours): percent” value in series [3] is recorded as 0%. Also, the “Plasma Stability mouse (1 hour): percent” value in series [4] is reported as 52%. For the same molecule, the “SIF (3 hours): percent” value in series [5] is reported as 0%. Moreover, the “Metabolic Stability mouse (30 minutes): percent of prodrug metabolized to riluzole” value in series [6] is reported as 0%.

With `CCCOC(=O)Nc1nc2ccc(OC(F)(F)F)cc2s1` [Cpd 14, (6-Trifluoromethoxy-benzothiazol-2-yl)-carbamic acid propyl ester], the “Metabolic Stability human (30 minutes): percent of prodrug metabolized to riluzole” value in series [1] amounted to 34%. Further, the “Plasma Stability Human (1 hour): percent” value in series [2] amounted to 0%. The “SGF (3 hours): percent” value in series [3] is recorded as 0%. The “Plasma Stability mouse (1 hour): percent” value in series [4] came out at 0%. Besides, the “SIF (3 hours): percent” value in series [5] is given as 0%. In addition, the “Metabolic Stability mouse (30 minutes): percent of prodrug metabolized to riluzole” value in series [6] is recorded as 15%.

As for `N[C@H](COCc1ccccc1)C(=O)Nc1nc2ccc(OC(F)(F)F)cc2s1` [Cpd 5, (R)-2-Amino-3-benzyloxy-N-(6-trifluoromethoxy-benzothiazol-2-yl)-propionamide], in series [1], the “Metabolic Stability human (30 minutes): percent of prodrug metabolized to riluzole” value is 0%. Besides, the “Plasma Stability Human (1 hour): percent” value in series [2] worked out at 3%. In series [4], the “Plasma Stability mouse (1 hour): percent” value turned out to be 25%. In addition, the “Metabolic Stability mouse (30 minutes): percent of prodrug metabolized to riluzole” value in series [6] amounted to 24%.

With `CN(C)CCOC(=O)Nc1nc2ccc(OC(F)(F)F)cc2s1` [Cpd 18, (6-Trifluoromethoxy-benzothiazol-2-yl)-carbamic acid 2-dimethylamino-ethyl ester], in series [1], the “Metabolic Stability human (30 minutes): percent of prodrug metabolized to riluzole” value is 10%. Moreover, the “Plasma Stability Human (1 hour): percent” value in series [2] amounted to 0%. Besides, in series [3], the “SGF (3 hours): percent” value is 0%. Besides, in series [4], the “Plasma Stability mouse (1 hour): percent” value is listed as 3%. For the same molecule, in series [5], the “SIF (3 hours): percent” value is 0%. Besides, the “Metabolic Stability mouse (30 minutes): percent of prodrug metabolized to riluzole” value in series [6] worked out at 13%.

Consider `Nc1ccc(C(=O)Nc2nc3ccc(OC(F)(F)F)cc3s2)cc1` [Cpd 28, 4-Amino-N-(6-trifluoromethoxy-benzothiazol-2-yl)-benzamide], for which, in series [1], the “Metabolic Stability human (30 minutes): percent of prodrug metabolized to riluzole” value is recorded as 80%. Moreover, in series [2], the “Plasma Stability Human (1 hour): percent” value was determined as 0%. Besides, in series [3], the “SGF (3 hours): percent” value is reported as 0%. Also, in series [4], the “Plasma Stability mouse (1 hour): percent” value was determined as 0%. The “SIF (3 hours): percent” value in series [5] is 0%. The “Metabolic Stability mouse (30 minutes): percent of prodrug metabolized to riluzole” value in series [6] turned out to be 24%.

On to `C[C@@H](N)C(=O)Nc1nc2ccc(OC(F)(F)F)cc2s1` [Cpd 2, (R)-2-Amino-N-(6-trifluoromethoxy-benzothiazol-2-yl)-propionamide], for which the “Metabolic Stability human (30 minutes): percent of prodrug metabolized to riluzole” value in series [1] came to 4%. Further, the “Plasma Stability Human (1 hour): percent” value in series [2] is 15%. For the same molecule, the “SGF (3 hours): percent” value in series [3] was 0%. The “Plasma Stability mouse (1 hour): percent” value in series [4] is recorded as 36%. Moreover, in series [5], the “SIF (3 hours): percent” value is listed as 50%. For the same molecule, in series [6], the “Metabolic Stability mouse (30 minutes): percent of prodrug metabolized to riluzole” value was 10%.

As to `NCC(=O)Nc1nc2ccc(OC(F)(F)F)cc2s1` [Cpd 1, 2-Amino-N-(6-trifluoromethoxy-benzothiazol-2-yl)-acetamide], the “Metabolic Stability human (30 minutes): percent of prodrug metabolized to riluzole” value in series [1] turned out to be 7%. For the same molecule, the “Plasma Stability Human (1 hour): percent” value in series [2] is given as 3%. The “Plasma Stability mouse (1 hour): percent” value in series [4] came to 11%. Moreover, in series [6], the “Metabolic Stability mouse (30 minutes): percent of prodrug metabolized to riluzole” value is 4%.

Take `O=C(O)CCC(=O)Nc1nc2ccc(OC(F)(F)F)cc2s1` [Cpd 20, N-(6-Trifluoromethoxy-benzothiazol-2-yl)-succinamic acid]: the “Metabolic Stability human (30 minutes): percent of prodrug metabolized to riluzole” value in series [1] stood at 0%. Further, the “Plasma Stability Human (1 hour): percent” value in series [2] is reported as 16%. Besides, the “SGF (3 hours): percent” value in series [3] is reported as 0%. Besides, the “Plasma Stability mouse (1 hour): percent” value in series [4] was 0%. Moreover, in series [5], the “SIF (3 hours): percent” value is recorded as 0%. Further, the “Metabolic Stability mouse (30 minutes): percent of prodrug metabolized to riluzole” value in series [6] worked out at 70%.

For `CCOC(=O)Nc1nc2ccc(OC(F)(F)F)cc2s1` [Cpd 13, (6-Trifluoromethoxy-benzothiazol-2-yl)-carbamic acid ethyl ester], the “Metabolic Stability human (30 minutes): percent of prodrug metabolized to riluzole” value in series [1] amounted to 7%. In addition, the “Plasma Stability Human (1 hour): percent” value in series [2] was found to be 0%. In addition, the “SGF (3 hours): percent” value in series [3] is recorded as 0%. For the same molecule, the “Plasma Stability mouse (1 hour): percent” value in series [4] is reported as 0%. The “SIF (3 hours): percent” value in series [5] is 0%. For the same molecule, the “Metabolic Stability mouse (30 minutes): percent of prodrug metabolized to riluzole” value in series [6] was found to be 8%.

With `N[C@@H](Cc1ccccc1)C(=O)Nc1nc2ccc(OC(F)(F)F)cc2s1` [Cpd 9, (S)-2-Amino-3-phenyl-N-(6-trifluoromethoxy-benzothiazol-2-yl)-propionamide], the “Metabolic Stability human (30 minutes): percent of prodrug metabolized to riluzole” value in series [1] came to 0%. Moreover, the “Plasma Stability Human (1 hour): percent” value in series [2] is recorded as 7%. In addition, in series [4], the “Plasma Stability mouse (1 hour): percent” value came to 0%. In series [6], the “Metabolic Stability mouse (30 minutes): percent of prodrug metabolized to riluzole” value was 2%.

In the case of `NCC1(CC(=O)Nc2nc3ccc(OC(F)(F)F)cc3s2)CCCCC1` [Cpd 29, 2-(1-Aminomethyl-cyclohexyl)-N-(6-trifluoromethoxy-benzothiazol-2-yl)-acetamide], in series [3], the “SGF (3 hours): percent” value is 0%. In addition, the “SIF (3 hours): percent” value in series [5] was 50%.

For `CCCCCCOC(=O)Nc1nc2ccc(OC(F)(F)F)cc2s1` [Cpd 17, (6-Trifluoromethoxy-benzothiazol-2-yl)-carbamic acid hexyl ester], in series [3], the “SGF (3 hours): percent” value was 0%.

Take `O=C(CCC(=O)Nc1nc2ccc(OC(F)(F)F)cc2s1)NCCN1CCOCC1` [Cpd 24, N-(2-Morpholin-4-yl-ethyl)-N′-(6-trifluoromethoxy-benzothiazol-2-yl)-succinamide]: in series [3], the “SGF (3 hours): percent” value is reported as 0%. Also, the “SIF (3 hours): percent” value in series [5] is listed as 60%.
